Source: article PMC11184554, “Nature-Inspired Gallinamides Are Potent Antischistosomal Agents: Inhibition of the Cathepsin B1 Protease Target and Binding Mode Analysis” (ACS Infectious Diseases, 2024)

Experiments:
[1] = system: ex vivo adult mixed sex S. mansoni; assay: Phenotypic screen with ex vivo adult schistosomes; format: cell-based; details: for adult severity score: scale 0 to 4
Description: In the next step, the bioactive compounds gallinamide A, 1, 6, and 9 (selected for structural analyses (see below)) were phenotypically screened against adult schistosomes. Experiments were performed at 1, 2, 5, and 10 μM with ex vivo adult mixed sex S. mansoni, and the phenotypes observed over 48 h were assigned severity scores ranging from 0 to 4 (Table 3 and Table S3).
For adult schistosomes, screens were performed in 24-well plates containing four male worms and one to two female worms per well in a final volume of 2 mL of complete Basch medium. Compounds were added at the final concentrations between 1 and 10 μM. Incubations were maintained for 48 h at 37 °C under 5% CO2. Afterward, the adult worms were collected, washed in RPMI 1640 medium, and used for soluble protein extract preparation.
A constrained nomenclature of “descriptors”[39],[42] was used to record the multiple and dynamic changes in movement, shape, and translucence that the schistosome parasite is capable of (Table S1 for NTS and Table S3 for adults). These descriptors were then converted into an ordinal “severity score” system ranging from 0 (no effect) to 4 (maximum effect), which allows for the relative comparison of compound effects.

[2] = system: cathepsins B and L (SmCatB/L); assay: Protease activity in extracts of adult worms treated with gallinamides, Cbz–Phe–Arg–AMC; format: cell-based, S. mansoni; details: adult worms incubated with 5 μM compound for 24 h (Figure 2 legend: 48 h); extract assayed with Cbz–Phe–Arg–AMC at pH 5.5
Description: (§1) Adult mixed sex S. mansoni were incubated in the presence of 5 μM gallinamide A, 1, 6, or 9 for 24 h, and protein extracts therefrom were assayed with the cathepsins B and L substrate, Cbz–Phe–Arg–AMC. Protease activity was reduced by ∼95% relative to the activity of untreated controls (Figure 2A). For comparison, we also quantified the activity of the nondigestive proteolytic enzyme, S. mansoni prolyl oligopeptidase (SmPOP). This serine protease, which is localized in the tegument of adult worms, was assayed with the selective substrate Cbz–Gly–Pro–AMC.[44] SmPOP was unaffected by the gallinamide treatment.
(§2) Figure 2 SmCB1 is a target for gallinamides in adult S. mansoni. (A) Mixed sex, adult S. mansoni were incubated for 48 h with 5 μM gallinamide A or 1, 6, and 9. After washing and preparation of worm extract, proteolytic activities (0.2 μg of protein) were measured in a kinetic assay using the cathepsin B and L substrate, Cbz–Phe–Arg–AMC (SmCatB/L, gray bars) at pH 5.5 or the prolyl oligopeptidase substrate, Cbz–Gly–Pro–AMC (SmPOP, white bars) at pH 8.0. Means ± SE of three replicates are normalized to the control not exposed to the inhibitor (set as 100%). (B–D) Imaging of SmCB1 using the gallinamide compound 5 as an activity-based probe. 5 contains an alkyne tag that can be modified by a copper-catalyzed click reaction with a fluorescent reagent (Alexa Fluor 647-azide) (B). Recombinant SmCB1 (rSmCB1, 0.5 μg) (C) or extracts of adult S. mansoni worms (7 μg of protein) (D) were incubated with 5 (10 μM) for 1 h and then clicked. Reactions were resolved by SDS-PAGE, and gels were visualized using a fluorescence scanner (Probe), stained for protein using Coomassie Brilliant Blue (CBB), or analyzed by Western blot with an anti-SmCB1 antibody (WB). In a control experiment, rSmCB1 or worm extract was treated with the […] protease inhibitor E-64 (10 μM), prior to incubation with 5. The positions of rSmCB1, native SmCB1, and its pro-form (pro-SmCB1) are indicated. The mass difference between rSmCB1 and native SmCB1 is caused by glycosylation (see Methods). The active site of the pro-SmCB1 is shielded by a propeptide[45] that prevents effective binding of 5. […]
(§3) Proteolytic activities in S. mansoni adult extracts were measured in a continuous kinetic assay using the following peptidyl fluorogenic substrates (Bachem) or internally quenched FRET substrates (IOCB): 50 μM Cbz–Phe–Arg–AMC for cathepsins B and L,[13],[15] […] Substrate hydrolysis was measured continuously using an Infinite M1000 microplate reader (Tecan) at excitation and emission wavelengths of 360/465 nm for AMC substrates and 320/420 nm for FRET substrates. […]

[3] = system: S. mansoni prolyl oligopeptidase (SmPOP); assay: Protease activity in extracts of adult worms treated with gallinamides, Cbz–Gly–Pro–AMC; format: cell-based; details: adult worms incubated with 5 μM compound for 24 h (Figure 2 legend: 48 h); extract assayed with Cbz–Gly–Pro–AMC at pH 8.0
Description: as §1, §2, §3

`CCC(C)C(C(=O)OC(CC(C)C)C(=O)NC(CC(C)C)C(=O)NC(C)C=CC(=O)N1C(=O)C=C(OC)C1Cc1ccccc1)N(C)C` (stereo not shown) [compound 9] was tested, and the adult phenotype descriptors ([1]; 2 h, 1 µM) was “N”, the adult severity score ([1]; 2 h, 1 μM) was 0 and the adult phenotype descriptors ([1]; 2 h, 2 µM) was “N”. The adult severity score ([1]; 2 h, 2 μM) was 0, the adult phenotype descriptors ([1]; 2 h, 5 µM) was “unc” and the adult severity score ([1]; 2 h, 5 μM) was 1. The adult phenotype descriptors ([1]; 2 h, 10 µM) was “unc”, the adult severity score ([1]; 2 h, 10 μM) was 1 and the adult phenotype descriptors ([1]; 6 h, 1 µM) was “N”. For the same compound, the adult severity score ([1]; 6 h, 1 μM) was 0, the adult phenotype descriptors ([1]; 6 h, 2 µM) was “N” and the adult severity score ([1]; 6 h, 2 μM) was 0. The adult phenotype descriptors ([1]; 6 h, 5 µM) was “unc”, the adult severity score ([1]; 6 h, 5 μM) was 1 and the adult phenotype descriptors ([1]; 6 h, 10 µM) was “unc, on sides”. The adult severity score ([1]; 6 h, 10 μM) was 2, the adult phenotype descriptors ([1]; 24 h, 1 µM) was “N” and the adult severity score ([1]; 24 h, 1 μM) was 0. The adult phenotype descriptors ([1]; 24 h, 2 µM) was “N”, the adult severity score ([1]; 24 h, 2 μM) was 0 and the adult phenotype descriptors ([1]; 24 h, 5 µM) was “unc, Dark”. The adult severity score ([1]; 24 h, 5 μM) was 2, the adult severity score ([1]; 24 h, 10 μM) was 4 and the adult phenotype descriptors ([1]; 48 h, 1 µM) was “N”. The adult severity score ([1]; 48 h, 1 μM) was 0, the adult phenotype descriptors ([1]; 48 h, 2 µM) was “unc, dark” and the adult severity score ([1]; 48 h, 2 μM) was 2. For the same compound, the adult severity score ([1]; 48 h, 5 μM) was 4, the adult severity score ([1]; 48 h, 10 μM) was 4 and the “protease activity reduced relative to untreated controls” value [2] was ~95%. For the same compound, the “SmPOP activity after gallinamide treatment” value [3] was “unaffected”.
